The record followed here is US7105553B2, “Thiazolyl amide derivatives” (Bayer Aktiengesellschaft, priority 1999, dated 2006).

For orientation: melting point means the temperature, or range, at which the solid turns liquid. Regarding `CNS(=O)(=O)c1sc(N(C)C(=O)Cc2ccc(-c3ccc(Cl)cc3)cc2)nc1C`, the melting point turned out to be 186 °C.

`Cc1nc(N(C)C(=O)Cc2ccc(-c3ncccc3C(F)(F)F)cc2)sc1S(N)(=O)=O.Cl` yielded a melting point of 225 °C.

As to `CNS(=O)(=O)c1sc(N(C)C(=O)Cc2ccc(-c3ncccc3O)cc2)nc1C`, the melting point was determined as 225 °C.

Compound `Cc1nc(N(C)C(=O)Cc2ccc(-c3ncccc3F)cc2)sc1S(N)(=O)=O.Cl` registered a melting point of 206 °C.

In turn, `CC(=O)Nc1cccc(-c2ccc(CC(=O)N(C)c3nc(C)c(S(N)(=O)=O)s3)cc2)c1` registered a melting point of 234 °C.

`Cc1nc(N(C)C(=O)Cc2ccc(-c3ccccc3)cc2)sc1S(=O)(=O)NCCO[Si](C)(C)C(C)(C)C` returned a melting point of 128 °C.

In the case of `COCCN(C(=O)Cc1ccc(-c2cc(F)ccc2OC)cc1)c1nc(C)c(S(N)(=O)=O)s1`, the melting point was determined as 199 °C.

In turn, `Cc1nc(N(CCc2ccncc2)C(=O)Cc2ccc(-c3ccccc3)cc2)sc1S(N)(=O)=O` returned a melting point of 204 °C.

The compound `Cc1nc(N(C)C(=O)Cc2ccc(-c3ccccc3)cc2)sc1S(=O)(=O)NCCOC(=O)CNC(=O)OC(C)(C)C` showed a melting point of 159 °C.

With `CCOc1ccc(CC(=O)N(CCN(C)C)c2nc(C)c(S(=O)(=O)NC)s2)cc1`, the melting point was determined as 153 °C.

As to `CNS(=O)(=O)c1sc(NC(=O)Cc2ccc(-c3ccccc3)cc2)nc1C`, the melting point came to 133 °C.

`Cc1nc(N(C(=O)Cc2ccc(-c3ccccc3)cc2)C2CC2)sc1S(N)(=O)=O` displayed a melting point of 179 °C.

`CNS(=O)(=O)c1sc(N(C(=O)Cc2ccc(-c3ccccc3)cc2)C2CC2)nc1C` showed a melting point of 202 °C.

In turn, `CNS(=O)(=O)c1sc(N(C)C(=O)Cc2ccc(-c3cccc(Cl)c3)cc2)nc1C` registered a melting point of 187 °C.

`CCCN(C(=O)Cc1ccc(-c2ccccc2)cc1)c1nc(C)c(S(N)(=O)=O)s1` registered a melting point of 154 °C.

Turning to `CNS(=O)(=O)c1sc(N(Cc2cccnc2)C(=O)Cc2ccc(-c3ccccc3)cc2)nc1C`, the melting point is 161 °C.

In the case of `CNS(=O)(=O)c1sc(N(CCCN2CCCC2=O)C(=O)Cc2ccc(-c3ccccc3)cc2)nc1C`, the melting point was determined as 158 °C.

As to `COCCCNS(=O)(=O)c1sc(N(C)C(=O)Cc2ccc(-c3ccccc3)cc2)nc1C`, the melting point is 142 to 143 °C.

On to `CCOCCCNS(=O)(=O)c1sc(N(C)C(=O)Cc2ccc(-c3ccccc3)cc2)nc1C`, for which the melting point lay within 139 to 140 °C.

`CNS(=O)(=O)c1sc(N(C)C(=O)Cc2ccc(-c3ccccc3OC(F)(F)F)cc2)nc1C`: the melting point was 190 °C.

Regarding `CCOCCCNS(=O)(=O)c1sc(N(CCCOCC)C(=O)Cc2ccc(-c3cccc(OC)c3)cc2)nc1C`, the melting point was in the range of 74 to 75 °C.

For the compound `CCOCCCNS(=O)(=O)c1sc(N(C)C(=O)Cc2ccc(-c3cccc(OC)c3)cc2)nc1C`, the melting point was in the range of 125 to 127 °C.

Compound `CNS(=O)(=O)c1sc(N(C)C(=O)Cc2ccc(-c3ccccc3)cc2)nc1C` gave a melting point of 180 °C.

As for `Cc1nc(N(C)C(=O)Cc2ccc(-c3cccnc3)cc2)sc1S(N)(=O)=O.Cl`, the melting point is 177 °C.

Take `CCOCCNS(=O)(=O)c1sc(N(C)C(=O)Cc2ccc(OCC)cc2)nc1C`: the melting point lay within 125 to 127 °C.

For the compound `CNS(=O)(=O)c1sc(N(C)C(=O)Cc2ccc(Br)cc2)nc1C`, the melting point came to 168 °C.

`CNS(=O)(=O)c1sc(N(C)C(=O)C(C)c2ccc(-c3ccccc3)cc2)nc1C` (centres unmarked) registered a melting point of 170 to 172 °C.

In turn, `Cc1nc(N(C)C(=O)Cc2ccc(-c3ccccc3)cc2)sc1S(=O)(=O)NCC(F)(F)F` came in with a melting point of 216 °C.

As to `CNS(=O)(=O)c1sc(N(C)C(=O)Cc2ccc(-c3cccc(OC)c3)cc2)nc1C`, the melting point was 154 °C.

In turn, `CCCN(C(=O)Cc1ccc(-c2ccccc2)cc1)c1nc(C)c(S(=O)(=O)NCC(F)(F)F)s1` returned a melting point of 108 °C.

In turn, `Cc1nc(N(C)C(=O)Cc2ccc(-c3cccc(O[Si](C)(C)C(C)(C)C)c3)cc2)sc1S(N)(=O)=O` gave a melting point of 161 °C.

Compound `CNS(=O)(=O)c1sc(N(C)C(=O)Cc2ccc(-c3ncccc3N)cc2)nc1C` gave a melting point of 80 °C.

As to `CNS(=O)(=O)c1sc(N(C)C(=O)Cc2ccc(-c3cncc(C#N)c3)cc2)nc1C`, the melting point came out at 130 °C.

On to `CNS(=O)(=O)c1sc(N(C)C(=O)Cc2ccc(-c3cnccc3C)cc2)nc1C`, for which the melting point came to 113 °C.

In turn, `CNS(=O)(=O)c1sc(N(C)C(=O)Cc2ccc(-c3ccccc3C(F)(F)F)cc2)nc1C` registered a melting point of 202 °C.

`CNS(=O)(=O)c1sc(N(C)C(=O)Cc2ccc(-c3ccccc3C)cc2)nc1C` came in with a melting point of 167 °C.

As for `CNS(=O)(=O)c1sc(N(C)C(=O)Cc2ccc(-c3cccc(F)c3)cc2)nc1C`, the melting point was found to be 190 °C.

Compound `COc1ccc(F)cc1-c1ccc(CC(=O)N(C)c2nc(C)c(S(N)(=O)=O)s2)cc1` gave a melting point of 219 °C.

The compound `CCCCOc1ccc(CC(=O)N(C)c2nc(C)c(S(=O)(=O)NCCOCC)s2)cc1` gave a melting point of 68 to 70 °C.

`CCOc1ccc(CC(=O)N(Cc2ccncc2)c2nc(C)c(S(N)(=O)=O)s2)cc1` had a melting point of 122 °C.

Consider `Cc1nc(N(Cc2ccccn2)C(=O)Cc2ccc(-c3ccccc3)cc2)sc1S(N)(=O)=O`, for which the melting point was 205 °C.

On to `Cc1nc(N(Cc2cccnc2)C(=O)Cc2ccc(-c3ccccc3)cc2)sc1S(N)(=O)=O`, for which the melting point was 189 °C.

`CNS(=O)(=O)c1sc(N(C)C(=O)Cc2ccc(-c3ccccc3OC)cc2)nc1C` came in with a melting point of 192 °C.

`Cc1nc(N(Cc2ccncc2)C(=O)Cc2ccc(-c3ccccc3)cc2)sc1S(N)(=O)=O`: the melting point was determined as 130 °C.

In turn, `CNS(=O)(=O)c1sc(N(C)C(=O)Cc2ccc(-c3cccc4c3oc3ccccc34)cc2)nc1C` returned a melting point of 109 °C.

`Cc1cnc(N)c(-c2ccc(CC(=O)N(C)c3nc(C)c(S(N)(=O)=O)s3)cc2)c1`: the melting point came to 183 °C.

`Cc1nc(N(C)C(=O)Cc2ccc(-c3ncccc3N)cc2)sc1S(N)(=O)=O.Cl`: the melting point is 264 °C.

As for `Cc1nc(N(C)C(=O)Cc2ccc(-c3cccc(F)c3F)cc2)sc1S(N)(=O)=O`, the melting point came out at 202 °C.

`Cc1nc(N(C)C(=O)Cc2ccc(-c3c(F)cccc3F)cc2)sc1S(N)(=O)=O` gave a melting point of 215 °C.

Take `Cc1nc(N(C)C(=O)Cc2ccc(-c3ccccc3)cc2)sc1S(=O)(=O)NCCN`: the melting point stood at 138 °C.

For `CNS(=O)(=O)c1sc(N(C)C(=O)Cc2ccc(-c3cncnc3)cc2)nc1C`, the melting point is 193 °C.

Regarding `Cc1nc(N(CCc2ccccn2)C(=O)Cc2ccc(-c3ccccc3)cc2)sc1S(N)(=O)=O`, the melting point turned out to be 136 °C.

Turning to `Cc1nc(N(CC2CC2)C(=O)Cc2ccc(-c3ccccc3)cc2)sc1S(N)(=O)=O`, the melting point came to 161 °C.

In the case of `Cc1nc(N(CCc2ccccc2)C(=O)Cc2ccc(-c3ccccc3)cc2)sc1S(N)(=O)=O`, the melting point is 174 °C.

In turn, `Cc1nc(N(CCCN2CCCC2=O)C(=O)Cc2ccc(-c3ccccc3)cc2)sc1S(N)(=O)=O` returned a melting point of 203 °C.

Regarding `Cc1nc(N(CCN2CCCC2=O)C(=O)Cc2ccc(-c3ccccc3)cc2)sc1S(N)(=O)=O`, the melting point was found to be 202 °C.
